Here are results for 14 compounds from patent publication US12391682B2, “Isoquinoline derivatives and their use for the treatment of parasitic infections” (Elanco Animal Health GmbH, priority 2019, dated 2025).

Test [1] has as its system Adult Nippostrongylus brasiliensis. Briefly: In Vitro Assay 3: Nippostrongylus brasiliensis (NIPOBR), acetylcholine esterase readout. The conditions noted are these: at 10 μg/ml (10 ppm), adult worms, read-out: activity (reduction of AChE compared to negative control). How it is done:
In Vitro Assay 3: Nippostrongylus brasiliensis (NIPOBR)
Adult Nippostrongylus brasiliensis were washed with saline buffer containing 100 U/ml penicillin, 0.1 mg/ml streptomycin and 2.5 μg/ml amphotericin B. Test compounds were dissolved in DMSO and worms were incubated in medium in a final concentration of 10 μg/ml (10 ppm). An aliquot of the medium was used to determine the acetylcholine esterase activity in comparison to a negative control. The principle of measuring acetylcholine esterase as readout for anthelmintic activity was described in Rapson et al (1986) and Rapson et al (1987).

The target of another test is D. immitis Slo-1 (Dirofilaria immitis, UniProt I0DFK5). Briefly: In Vitro Assay 2: D. immitis Slo-1, membrane potential measurement in stable recombinant CHO cell line. It is filed as cell-based.
D. immitis Slo-1, sequence (I0DFK5 1-1119): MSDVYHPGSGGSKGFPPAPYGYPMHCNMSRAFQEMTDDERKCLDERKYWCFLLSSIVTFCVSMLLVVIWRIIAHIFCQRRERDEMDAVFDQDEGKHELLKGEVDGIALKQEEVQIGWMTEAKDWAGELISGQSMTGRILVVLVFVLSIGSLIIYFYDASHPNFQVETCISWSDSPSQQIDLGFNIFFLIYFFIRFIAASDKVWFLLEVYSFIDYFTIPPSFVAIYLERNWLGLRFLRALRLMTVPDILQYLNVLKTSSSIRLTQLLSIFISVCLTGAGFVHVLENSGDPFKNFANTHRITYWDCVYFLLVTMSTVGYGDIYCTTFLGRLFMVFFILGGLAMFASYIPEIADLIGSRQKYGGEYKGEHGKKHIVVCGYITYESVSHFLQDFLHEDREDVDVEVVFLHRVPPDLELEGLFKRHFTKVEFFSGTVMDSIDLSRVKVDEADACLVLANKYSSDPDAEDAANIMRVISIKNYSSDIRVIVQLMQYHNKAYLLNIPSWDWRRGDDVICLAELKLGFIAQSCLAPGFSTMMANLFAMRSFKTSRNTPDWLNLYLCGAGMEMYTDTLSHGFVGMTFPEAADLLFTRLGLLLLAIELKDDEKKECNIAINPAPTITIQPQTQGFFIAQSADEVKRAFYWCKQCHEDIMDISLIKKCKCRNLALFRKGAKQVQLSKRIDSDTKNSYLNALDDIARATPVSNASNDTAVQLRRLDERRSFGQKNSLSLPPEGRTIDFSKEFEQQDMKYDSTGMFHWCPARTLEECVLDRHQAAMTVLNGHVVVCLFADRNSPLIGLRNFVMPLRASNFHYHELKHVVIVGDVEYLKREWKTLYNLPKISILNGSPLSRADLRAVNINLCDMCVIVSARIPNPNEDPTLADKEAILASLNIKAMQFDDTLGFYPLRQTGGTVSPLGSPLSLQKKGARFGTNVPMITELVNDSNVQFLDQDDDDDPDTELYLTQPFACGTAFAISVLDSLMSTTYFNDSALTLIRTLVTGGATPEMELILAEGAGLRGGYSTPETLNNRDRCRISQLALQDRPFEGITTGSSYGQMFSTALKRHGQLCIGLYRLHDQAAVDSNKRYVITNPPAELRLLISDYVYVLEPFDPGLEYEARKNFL
The test system of the next test is Dirofilaria immitis. Description: In Vitro Assay 5: Dirofilaria immitis (DIROIM L4), motility. The settings on record: 72 h, read-out: EC50 (reduction of motility in comparison to the negative control).
Test [2] concerns Dirofilaria immitis microfilariae. Description: In Vitro Assay 4: Dirofilaria immitis microfilariae (DIROIM L1), motility. The settings on record: 72 h, read-out: EC50 (reduction of motility in comparison to the negative control).
A further test deals with C. elegans Slo-1a (Caenorhabditis elegans, UniProt Q95V25).
C. elegans Slo-1a, sequence (Q95V25 whole entry): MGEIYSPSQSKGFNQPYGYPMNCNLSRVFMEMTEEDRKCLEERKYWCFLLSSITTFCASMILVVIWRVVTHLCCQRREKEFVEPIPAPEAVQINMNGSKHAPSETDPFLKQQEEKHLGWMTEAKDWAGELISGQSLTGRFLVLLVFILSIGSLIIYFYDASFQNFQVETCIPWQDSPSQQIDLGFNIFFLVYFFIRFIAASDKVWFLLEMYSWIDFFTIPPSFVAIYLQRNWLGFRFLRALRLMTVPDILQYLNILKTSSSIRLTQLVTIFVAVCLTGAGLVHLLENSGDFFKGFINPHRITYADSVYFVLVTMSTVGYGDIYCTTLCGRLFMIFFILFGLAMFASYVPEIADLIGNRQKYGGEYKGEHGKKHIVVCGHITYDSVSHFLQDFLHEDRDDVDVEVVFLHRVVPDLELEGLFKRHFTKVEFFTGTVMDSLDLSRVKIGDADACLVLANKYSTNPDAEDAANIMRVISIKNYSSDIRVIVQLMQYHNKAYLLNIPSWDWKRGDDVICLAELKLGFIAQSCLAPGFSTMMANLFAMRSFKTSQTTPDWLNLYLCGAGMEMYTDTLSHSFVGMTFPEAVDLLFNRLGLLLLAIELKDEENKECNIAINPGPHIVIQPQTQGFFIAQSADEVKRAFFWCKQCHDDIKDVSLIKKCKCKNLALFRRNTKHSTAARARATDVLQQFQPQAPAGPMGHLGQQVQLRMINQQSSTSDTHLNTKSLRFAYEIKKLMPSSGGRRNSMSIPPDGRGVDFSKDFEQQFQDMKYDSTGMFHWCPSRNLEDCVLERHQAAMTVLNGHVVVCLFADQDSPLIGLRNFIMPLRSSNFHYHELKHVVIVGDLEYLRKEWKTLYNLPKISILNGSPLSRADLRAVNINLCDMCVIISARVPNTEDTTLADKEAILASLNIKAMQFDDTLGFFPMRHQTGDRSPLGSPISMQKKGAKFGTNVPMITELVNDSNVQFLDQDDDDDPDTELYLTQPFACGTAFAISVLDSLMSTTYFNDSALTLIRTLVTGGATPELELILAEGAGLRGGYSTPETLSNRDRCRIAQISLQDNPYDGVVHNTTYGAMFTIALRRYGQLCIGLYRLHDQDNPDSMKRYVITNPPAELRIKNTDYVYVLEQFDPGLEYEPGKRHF

Protocol for C. elegans Slo-1a: In Vitro Assay 1: C. elegans Slo-1a—Action at a Recombinant C. elegans Cell Line
Generation of a Stable Caenorhabditis elegans CHO Cell Line
A CHO cell line was obtained from ATCC, code ATCC CRL-9096. For transfection with plasmid DNA to express C. elegans Slo-1a (accession number AAL28102)CHO cells were passaged to 40% confluence before adding the transfection solution to the cell culture. The transfection solution included 300 μL OptiMEM (Life Technologies, Nr.: 31985), 2 μL (=6 μg) of plasmid DNA containing the C. elegans Slo 1a gene and 9 μL FugeneHD (Promega, Nr.: E2311), and was added to the cells prior to incubation for 48 hours at 37° C., 5% CO2. The transfection medium was exchanged for the selection medium which contains additional G418 (2 mg/ml, Invitrogen, Nr.: 10131) and the cells were seeded into 384 well plates (300 cells/well). […]
After starting the measurement of fluorescence using a FLIPR Tetra (Molecular Devices, Exc. 510-545 nm, Emm. 565-625 n), test compounds were added followed by the addition of KCl tyrode (final assay concentration: 70 mM KCl, 2 mM CaCl2, 1 mM MgCl2, 0.8 mM NaH2PO4, 5 mM Glucose, 28 mM Hepes, pH 7.4, including the voltage sensitive dye). […]
The data were evaluated by using the ActivityBase XLfit software (IDBS) for curve fitting and calculation of the half-maximal effective concentration (EC50) and are reported as negative decadic logarithm (pE50).

Broadly, the EC50 is the concentration that produces a half-maximal response. On to `O=C(N[C@H]1CCOc2ccccc21)c1ncc2c(-c3cc(F)cc(F)c3F)cccc2c1N1CCOCC1` [Example I-1, N-[(4S)-3,4-dihydro-2H-chromen-4-yl]-4-(morpholin-4-yl)-8-(2,3,5-trifluorophenyl)isoquinoline-3-carboxamide], for which the inhibition at 10 µg/mL in test [1] is > 80%. In addition, the concentration giving a half-maximal response (EC50) was 3.16 to 31.6 nM at D. immitis Slo-1, < 0.1 µg/mL with Dirofilaria immitis and < 0.1 µg/mL in test [2].

Regarding `Cc1c(C(=O)N[C@H]2CCOc3ccccc32)ncc2c(-c3cc(F)cc(F)c3F)cccc12` [Example I-2, N-[(4S)-3,4-dihydro-2H-chromen-4-yl]-4-methyl-8-(2,3,5-trifluorophenyl)isoquinoline-3-carboxamide], in test [1], the inhibition at 10 µg/mL was > 80%. For the same compound, the EC50 is 316 to 5010 nM on D. immitis Slo-1, < 0.1 µg/mL in the test on Dirofilaria immitis and < 0.1 µg/mL in test [2].

Consider `CC(C)c1c(C(=O)N[C@H]2CCOc3ccccc32)ncc2c(-c3cc(F)cc(F)c3F)cccc12` [Example I-3, N-[(4S)-3,4-dihydro-2H-chromen-4-yl]-4-isopropyl-8-(2,3,5-trifluorophenyl)isoquinoline-3-carboxamide], for which the inhibition at 10 µg/mL in test [1] was > 80%. Besides, the EC50 was 31.6 to 316 nM at D. immitis Slo-1, < 0.1 µg/mL with Dirofilaria immitis and < 0.1 µg/mL in test [2].

Consider `CC(C)c1c(C(=O)N[C@H]2CCOc3ccccc32)ncc2c(-c3cc(Cl)cc(Cl)c3)cccc12` [Example I-4], for which the inhibition at 10 µg/mL in test [1] was > 80%. Besides, the EC50 on D. immitis Slo-1 is 31.6 to 316 nM; in the test with Dirofilaria immitis, < 0.1 µg/mL; in test [2] it was < 0.1 µg/mL.

For `Cc1c(C(=O)N[C@H]2CCc3ccccc32)ncc2c(-c3cc(F)cc(F)c3F)cccc12` [Example I-7], the inhibition at 10 µg/mL in test [1] was > 80%. Besides, the figures for the EC50 (at D. immitis Slo-1; in the test with Dirofilaria immitis; in test [2]) were 316 to 5010 nM, < 1 µg/mL and < 0.1 µg/mL, respectively.

Consider `O=C(N[C@H]1CCCc2ccccc21)c1ncc2c(-c3cc(Cl)cc(Cl)c3)cccc2c1N1CCOCC1` [Example I-8], for which, in test [1], the inhibition at 10 µg/mL was > 80%. Moreover, the EC50 was 3.16 to 31.6 nM at C. elegans Slo-1a, 316 to 5010 nM at D. immitis Slo-1, < 0.1 µg/mL with Dirofilaria immitis and < 0.1 µg/mL in test [2].

In the case of `O=C(N[C@H]1CCCc2ccccc21)c1ncc2c(-c3cc(F)cc(F)c3F)cccc2c1N1CCOCC1` [Example I-9], the inhibition at 10 µg/mL in test [1] is > 80%. Moreover, the figures for the EC50 (at D. immitis Slo-1; with Dirofilaria immitis; in test [2]) were 31.6 to 316 nM, < 0.1 µg/mL and < 0.1 µg/mL, respectively.

`O=C(N[C@H]1CCOc2ccccc21)c1ncc2c(-c3cc(Cl)cc(Cl)c3)cccc2c1N1CCOCC1` [Example I-11]: the inhibition at 10 µg/mL in test [1] is > 80%. For the same compound, the EC50 was 316 to 5010 nM on D. immitis Slo-1, < 0.1 µg/mL in the test on Dirofilaria immitis and < 0.1 µg/mL in test [2].

Consider `CC(C)(C)c1cc(Cl)cc(-c2cccc3c(N4CCOCC4)c(C(=O)N[C@H]4CCOc5ccccc54)ncc23)c1` [Example I-12], for which the inhibition at 10 µg/mL in test [1] is > 80%. Also, the figures for the half-maximal effective concentration (EC50) (at D. immitis Slo-1; in the test with Dirofilaria immitis; in test [2]) were 316 to 5010 nM, < 0.1 µg/mL and < 0.1 µg/mL, respectively.

With `Cc1c(C(=O)N[C@H]2CCOc3ccccc32)ncc2c(-c3cc(Cl)cc(Cl)c3)cccc12` [Example I-13], in test [1], the inhibition at 10 µg/mL is > 80%. Besides, the concentration for a half-maximal effect (EC50) at C. elegans Slo-1a is 31.6 to 316 nM; in the test with Dirofilaria immitis, < 1 µg/mL; in test [2], < 0.1 µg/mL.

On to `O=C(NC1CCSc2ccc(F)cc21)c1ncc2c(-c3cc(F)cc(F)c3F)cccc2c1N1CCOCC1` (centres unmarked) [Example I-15], for which the EC50 was 316 to 5010 nM on D. immitis Slo-1, < 0.1 µg/mL with Dirofilaria immitis and < 1 µg/mL in test [2].

For `O=C(N[C@H]1CCOc2ccccc21)c1cnc2c(Br)cccc2c1N1CCOCC1` [IC-1, 8-Bromo-N-[(4S)-3,4-dihydro-2H-chromen-4-yl]-4-(morpholin-4-yl)quinoline-3-carboxamide], the EC50 in test [2] was < 10 µg/mL.

As to `Cc1c(C(=O)N[C@H]2CCOc3ccccc32)ncc2c(Br)cccc12` [IC-2, 8-Bromo-N-[(4S)-3,4-dihydro-2H-chromen-4-yl]-4-methylisoquinoline-3-carboxamide], the EC50 in test [2] was < 10 µg/mL.

`CC(C)c1c(C(=O)N[C@H]2CCOc3ccccc32)ncc2c(Br)cccc12` [IC-3, 8-Bromo-N-[(4S)-3,4-dihydro-2H-chromen-4-yl]-4-isopropylisoquinoline-3-carboxamide]: the EC50 in test [2] is < 10 µg/mL.
